ChEMBL document CHEMBL1143137, “Synthesis, in vitro and in vivo activity of thiamine antagonist transketolase inhibitors” (Bioorg Med Chem Lett, 2008)
pEC50, pKd: −log10 of the molar value. Calls of active or inactive are those of the source. The calls are words filed in the database; no cut-off is given here.

Columns and labels:
Transketolase [1] = biological target: T1, Transketolase (Homo sapiens, UniProt P29401); assay: Inhibition of human transketolase in HCT116 cells; type: cell-based, HCT-116
T1 sequence (P29401 whole entry): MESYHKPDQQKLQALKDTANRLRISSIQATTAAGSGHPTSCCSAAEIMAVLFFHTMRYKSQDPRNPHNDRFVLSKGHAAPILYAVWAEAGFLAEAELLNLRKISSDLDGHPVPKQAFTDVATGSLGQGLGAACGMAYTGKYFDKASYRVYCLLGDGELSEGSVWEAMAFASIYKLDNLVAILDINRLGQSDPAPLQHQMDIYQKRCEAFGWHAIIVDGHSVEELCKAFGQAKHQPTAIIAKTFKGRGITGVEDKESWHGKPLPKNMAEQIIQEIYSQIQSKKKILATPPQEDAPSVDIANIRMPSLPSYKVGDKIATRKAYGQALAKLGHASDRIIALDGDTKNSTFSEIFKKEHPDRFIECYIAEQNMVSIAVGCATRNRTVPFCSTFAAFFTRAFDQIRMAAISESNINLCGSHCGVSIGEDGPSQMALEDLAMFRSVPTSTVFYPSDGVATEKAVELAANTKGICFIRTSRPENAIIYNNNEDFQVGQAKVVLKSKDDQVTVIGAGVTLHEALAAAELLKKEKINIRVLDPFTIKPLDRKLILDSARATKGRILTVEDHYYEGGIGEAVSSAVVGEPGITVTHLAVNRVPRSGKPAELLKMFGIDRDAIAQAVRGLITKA

Transketolase [2] = biological target: T1, Transketolase; assay: Inhibition of transketolase by TPPK/apo-TK coupled assay
Transketolase [3] = biological target: T1, Transketolase; assay: Binding affinity to apo-transketolase
Mus musculus [4] = assay: Inhibition of transketolase activity in human HCT116 cells xenografted mouse at 100 mg/kg, iv bid for 2 weeks; type: functional, organism-based; design: dose 100 mg/kg; conditions: HCT-116
Mus musculus [5] = assay: Inhibition of alphaKGDH activity in human HCT116 cells xenografted mouse at 100 mg/kg, iv bid for 2 weeks; type: functional, organism-based; design: dose 100 mg/kg; conditions: HCT-116
Mus musculus [6] = assay: Inhibition of G6PD activity in human HCT116 cells xenografted mouse at 100 mg/kg, iv bid for 2 weeks; type: functional, organism-based; design: dose 100 mg/kg; conditions: HCT-116
HCT-116 = assay: Antitumor activity against human HCT116 cells xenografted mouse assessed as reduction in tumor size at 100 mg/kg, iv bid for 2 weeks; type: functional, organism-based; design: dose 100 mg/kg

Structure (SMILES) | pEC50 (Transketolase [1]) | pKd (Transketolase [2]) | further results
Cc1c(CCO)sc[n+]1Cc1ccc(Cl)nc1N | – | 7.34 | –
Cc1ccc(C[n+]2csc(C(O)CO)c2C)c(N)n1 (configuration not stated) | 6.52 | 7.28 | –
Cc1c(CCO)sc[n+]1Cc1cccnc1N | – | 7.44 | –
Cc1ccc(C[n+]2csc(CCCO)c2C)c(N)n1 | 5.89 | – | –
Cc1ccc(C[n+]2c(C)sc(CCO)c2C)c(N)n1 | 7.25 | 7.60 | –
Cc1ccc(C[n+]2csc(CCC#N)c2C)c(N)n1 | 5.66 | – | –
Cc1c(CCO)sc[n+]1Cc1c(C(F)(F)F)cc(C(F)(F)F)nc1N | – | 5.84 | –
Cc1cncc(C[n+]2csc(CCO)c2C)c1 | 4.42 | 6.66 | –
Cc1ccc(C[n+]2c(Cc3cccnc3)sc(CCO)c2C)c(N)n1 | 6.08 | – | –
Cc1c(CCO)sc[n+]1Cc1ccc(C(F)(F)F)nc1 | 6.33 | 6.51 | –
Cc1ccc(C[n+]2csc([C@H](O)CO)c2C)c(N)n1 | 7.30 | 7.55 | –
Cc1ccc(C[n+]2cc(CCO)sc2C)c(N)n1 | 6.31 | 7.44 | –
Cc1ccc(C[n+]2csc(CCO)c2)c(N)n1 | – | 7.54 | –
Cc1c(CCO)sc[n+]1Cc1ccc(N)nc1 | 5.80 | 8.15 | –
Cc1c(CCO)sc[n+]1Cc1ccc(C#N)nc1N | 6.44 | 7.24 | –
Cc1ccc(C[n+]2csc(CCOP(=O)(O)OP(=O)(O)O)c2C)c(N)n1 | – | – | pKd (Transketolase [3]): 7.66
Cc1c(CCO)sc[n+]1Cc1ccc(C(=O)c2ccccc2C(=O)O)nc1 | 5.51 | 6.85 | –
Cc1c(CCO)sc[n+]1Cc1cc(I)cnc1N | 6.00 | 6.96 | –
CC(=O)OCCc1sc[n+](Cc2ccc(C)nc2N)c1C | 8.33 | – | –
Cc1c(CCO)sc[n+]1Cc1ccc(C(F)(F)F)nc1N | 6.80 | 6.98 | –
Cc1ccc(C[n+]2csc(CCO)c2C)c(N)n1 | 7.59 | 7.48 | Activity (Mus musculus [4]): Active; Activity (Mus musculus [5]): Active; Activity (Mus musculus [6]): inactive; Activity (HCT-116): inactive

Now from value to molecule, other results behind:

pEC50 (Transketolase [1]) | pKd (Transketolase [2]) | Structure (SMILES) | further results
4.60 | – | Cc1ccc(C[n+]2c(-c3ccc4c(c3)OCO4)sc(CCO)c2C)c(N)n1 | –
4.62 | 7.19 | Cc1c(CCO)sc[n+]1Cc1cnccc1N | –
7.68 | 7.12 | CCc1sc(CCO)c(C)[n+]1Cc1ccc(C)nc1N | –
5.64 | – | COC(=O)CCc1sc[n+](Cc2ccc(C)nc2N)c1C | –
8.08 | 7.47 | Cc1cc(C)c(C[n+]2csc(CCO)c2C)c(N)n1 | –
6.10 | 7.64 | CC(=O)Nc1ccc(C[n+]2csc(CCO)c2C)c(N)n1 | –
5.70 | 7.57 | Cc1ccc(C[n+]2csc([C@@H](O)CO)c2C)c(N)n1 | –
6.24 | 7.60 | Cc1ccc(C[n+]2csc(CCO)c2CO)c(N)n1 | –
6.02 | 7.40 | CCc1c(CCO)sc[n+]1Cc1ccc(C)nc1N | –
7.52 | 6.92 | Cc1ccc(C[n+]2c(C(C)O)sc(CCO)c2C)c(N)n1 (configuration not stated) | –
8.06 | 8.00 | CCc1ccc(C[n+]2csc(CCO)c2C)c(N)n1 | –
